Among the data in patent US8673929B2, “4,6-di- and 2,4,6-trisubstituted quinazoline derivatives and pharmaceutical compositions useful for treating viral infections” (priority 2006, dated 2014) are EC50 and CC50 values, retold here.

One data set has as its system HCV replicon. Put plainly: Anti-HCV replicon assay, EC50 (luciferase readout). Type of data set: cell-based. As to conditions: Hepatitis C virus, 72 h; Huh-7 HCV replicon cells, 3 days incubation, luciferase luminescence. The protocol:
(§1) The anti HCV activity of the quinazoline derivatives of this invention was tested in a human hepatoma Huh-7 cell line harbouring a HCV replicon. The assay comprised the following steps:
(§2) Step 1: compound preparation and serial dilution • 1. for water soluble quinazoline derivatives, a volume of 500 μL of solution in cell media (DMEM, 10% FBS, P/S, L-Glutamine) was prepared with a concentration being twice the concentration of the starting final serial dilution concentration. A volume of 150 μL of the solution was added to the pre-specified wells in column 1 of a 96-well cell culture plate (PerkinElmer, white plate, cat. #6005181, for EC50 assay; black plate, cat. #6005182 for CC50 assay). The rest of the plate, columns 2-12, was filled with 100 μL of cell media. The plate was then placed on a Precision 2000 Workstation to start the serial dilution. Compounds were diluted three times each step from column 1 to column 10. Column 11 was used as a blank control (no compound added). • 2. for quinazoline derivatives requiring DMSO to dissolve, serial dilution is performed in 50% DMSO in a 384-well plate. A solution containing a compound at 100-fold concentration of the starting final serial dilution concentration was prepared in 50% DMSO and added to the pre-specified wells in column 1 of a polypropylene 384-well plate. The plate was then placed on a Precision 2000 Workstation to start the serial dilution. After the serial dilution, a volume of 2 μL of the solution was transferred from the 384-well plate to a 96-well cell culture plate containing 100 μL of cell media on a Biomek FX Workstation. The DMSO concentration in the final assay condition was 0.5% after cells are added to the plate and the total volume in each well is brought to 200 μL.
(§3) Step 2: to each well of the serial dilution plate prepared above, 100 μL of cell media containing 6000 suspended Huh-7 HCV replicon cells was added with a Multidrop workstation. The plates were incubated for 3 days at 37° C. with 5% CO2.
(§4) Step 3: detection: • a) for the EC50 assay, the media in a 96-well cell culture plate was aspirated with a Biotek EL405 plate-washer. A volume of 200 μL of a solution containing a 1:1 mixture of cell-lysis buffer (Promega, Luciferase Cell Culture Lysis 5× Reagent, cat. #E1531) and luciferase substrate solution (Promega, Luciferase Assay, cat.# E4550) was added to each well of the plate with Multidrop. The plate was incubated for 30 minutes at room temperature before the luminescence signal was measured with a TopCount plate-reader. • b) for the CC50 assay, a volume of 100 μL of pre-mixed CellTiter-Glo (Promega, cat.# G7572) solution is added directly to the cell culture in each well of the plate and the luminescence signal is measured with a TopCount plate-reader after 10 minutes of incubation at room temperature.
(§5) Results in the table below are expressed by the following data: • the 50% cytostatic concentration (CC50), i.e. the concentration that results in 50% inhibition of cell growth, and • the 50% effective concentration (EC50), i.e. the concentration that […].
A general note: Replicon systems follow genome replication, usually without infectious particles.

The nature of data set [1]: CC50 assay in the anti-HCV replicon assay (CellTiter-Glo). The data set is classed as cell-based, human. As to conditions: human, Huh-7 hepatoma cells harbouring an HCV replicon; Huh-7 HCV replicon cells, 3 days incubation, CellTiter-Glo luminescence. The protocol: as §1, §2, §3, §4, §5

One may read the EC50 as the concentration needed to bring the measured effect to its halfway point. What is called CC50 is the concentration giving 50% cytotoxicity. Low values mean harm at low concentration, high ones better tolerance by the cells. `CC(C)Oc1nc(N)nc2ccc(-c3ccc(F)c(F)c3)cc12` [Example 91, 6-(3,4-Difluoro-phenyl)-4-isopropoxy-quinazolin-2-ylamine] had an EC50 in the data set on HCV replicon of 0.3 to 1 µM. For the same molecule, the CC50 at 3 days in data set [1] was in the range of 10 to 20 µM.
The matching figures for `CC(C)Oc1nc(N)nc2ccc(-c3ccncc3)cc12` [Example 92, 4-Isopropoxy-6-pyridin-4-yl-quinazolin-2-ylamine]: 0.3 to 1 µM and 10 to 20 µM.
The molecule `CC(C)Oc1nc(N)nc2ccc(-c3cccc(C#N)c3)cc12` [Example 93, 3-(2-Amino-4-isopropoxy-quinazolin-6-yl)-benzonitrile] came in with an EC50 with HCV replicon of 0.3 to 1 µM. In data set [1], this molecule returned a CC50 at 3 days of 10 to 20 µM.
The matching figures for `CC(C)Oc1nc(N)nc2ccc(-c3cc(F)cc(F)c3)cc12` [Example 94, 6-(3,5-Difluoro-phenyl)-4-isopropoxy-quinazolin-2-ylamine]: 1 to 10 µM and above 20 µM.
The matching figures for `CC(C)Oc1nc(N)nc2ccc(-c3ccc(OC(F)(F)F)cc3)cc12` [Example 95, 4-Isopropoxy-6-(4-trifluoromethoxy-phenyl)-quinazolin-2-ylamine]: 1 to 10 µM and above 20 µM.
The matching figures for `CC(C)Oc1nc(N)nc2ccc(-c3ccc(N)cc3)cc12` [Example 96, 6-(4-Amino-phenyl)-4-isopropoxy-quinazolin-2-ylamine]: 0.3 to 1 µM and above 20 µM.
In the case of `CC(C)Oc1nc(N)nc2ccc(-c3ccc(F)c(F)c3F)cc12` [Example 97, 4-Isopropoxy-6-(2,3,4-trifluoro-phenyl)-quinazolin-2-ylamine], the EC50 in the data set with HCV replicon was in the range of 0.3 to 1 µM. This molecule also returned a CC50 at 3 days in data set [1] above 20 µM.
Taken in the same sequence, the figures for `CC(C)Oc1nc(N)nc2ccc(-c3ccccc3OCc3ccccc3)cc12` [Example 98, 6-(2-Benzyloxy-phenyl)-4-isopropoxy-quinazolin-2-ylamine] were 1 to 10 µM and below 10 µM.
The matching figures for `CC(C)Oc1nc(N)nc2ccc(-c3ccc(C#N)cc3)cc12` [Example 99, 4-(2-Amino-4-isopropoxy-quinazolin-6-yl)-benzonitrile]: 0.3 to 1 µM and above 20 µM.
Taken in the same sequence, the figures for `CC(C)Oc1nc(N)nc2ccc(-c3ccc(O)cc3)cc12` [Example 100, 4-(2-Amino-4-isopropoxy-quinazolin-6-yl)-phenol] were below 0.3 µM and 10 to 20 µM.
Turning to `CC(C)Oc1nc(N)nc2ccc(-c3cnc4ccccc4c3)cc12` [Example 101, 4-Isopropoxy-6-quinolin-3-yl-quinazolin-2-ylamine], in the data set with HCV replicon, the EC50 lay in the range of 1 to 10 µM. The same molecule came in with a CC50 at 3 days in data set [1] of 10 to 20 µM.
The matching figures for `Nc1nc(OCC2CCC2)c2cc(-c3ccc(F)cc3F)ccc2n1` [Example 102, 4-Cyclobutylmethoxy-6-(2,4-difluoro-phenyl)-quinazolin-2-ylamine]: 1 to 10 µM and below 10 µM.
Taken in the same sequence, the figures for `Nc1nc(OCC2CCC2)c2cc(-c3ccc(F)cc3)ccc2n1` [Example 103, 4-Cyclobutylmethoxy-6-(4-fluoro-phenyl)-quinazolin-2-ylamine] were 1 to 10 µM and 10 to 20 µM.
In the case of `Nc1nc(OCC2CCC2)c2cc(-c3cccc(F)c3F)ccc2n1` [Example 104, 4-Cyclobutylmethoxy-6-(2,3-difluoro-phenyl)-quinazolin-2-ylamine], the EC50 in the data set on HCV replicon lay in the range of 1 to 10 µM. In data set [1], this molecule had a CC50 at 3 days above 20 µM.
Taken in the same sequence, the figures for `Cc1ccccc1-c1ccc2nc(N)nc(OCC3CCC3)c2c1` [Example 105, 4-Cyclobutylmethoxy-6-o-tolyl-quinazolin-2-ylamine] were 1 to 10 µM and 10 to 20 µM.
Taken in the same sequence, the figures for `Nc1nc(OCC2CCC2)c2cc(-c3cccc(C(F)(F)F)c3)ccc2n1` [Example 106, 4-Cyclobutylmethoxy-6-(3-trifluoromethyl-phenyl)-quinazolin-2-ylamine] were 1 to 10 µM and 10 to 20 µM.
The matching figures for `Cc1ccc(-c2ccc3nc(N)nc(OCC4CCC4)c3c2)cc1` [Example 107, 4-Cyclobutylmethoxy-6-p-tolyl-quinazolin-2-ylamine]: 1 to 10 µM and above 20 µM.
Molecule `Nc1nc(OCC2CCC2)c2cc(-c3ccc(Cl)cc3Cl)ccc2n1` [Example 108, 4-Cyclobutylmethoxy-6-(2,4-dichloro-phenyl)-quinazolin-2-ylamine] displayed an EC50 in the data set on HCV replicon of 1 to 10 µM. In data set [1], the CC50 at 3 days was above 20 µM.
In the data set on HCV replicon, `CCOc1ccc(-c2ccc3nc(N)nc(OCC4CCC4)c3c2)cc1` [Example 109, 4-Cyclobutylmethoxy-6-(4-ethoxy-phenyl)-quinazolin-2-ylamine] returned an EC50 of 1 to 10 µM. For the same molecule, in data set [1], the CC50 at 3 days was above 20 µM.
Taken in the same sequence, the figures for `Nc1nc(OCC2CCC2)c2cc(-c3ccc(F)cc3Cl)ccc2n1` [Example 110, 4-Cyclobutylmethoxy-6-(2-chloro-4-fluoro-phenyl)-quinazolin-2-ylamine] were 1 to 10 µM and 10 to 20 µM.
Taken in the same sequence, the figures for `Nc1nc(OCC2CCC2)c2cc(-c3ccoc3)ccc2n1` [Example 111, 4-Cyclobutylmethoxy-6-furan-3-yl-quinazolin-2-ylamine] were 0.3 to 1 µM and 10 to 20 µM.
The matching figures for `Nc1nc(OCC2CCC2)c2cc(-c3ccc(F)c(Cl)c3)ccc2n1` [Example 112, 4-Cyclobutylmethoxy-6-(3-chloro-4-fluoro-phenyl)-quinazolin-2-ylamine]: 1 to 10 µM and above 20 µM.
`Nc1nc(OCC2CCC2)c2cc(-c3ccn[nH]3)ccc2n1` [Example 113, 4-Cyclobutylmethoxy-6-(2H-pyrazol-3-yl)-quinazolin-2-ylamine] displayed an EC50 in the data set with HCV replicon of 0.3 to 1 µM. In data set [1], the CC50 at 3 days was in the range of 10 to 20 µM.
The matching figures for `Nc1nc(OCC2CCC2)c2cc(-c3cc4ccccc4o3)ccc2n1` [Example 114, 6-Benzofuran-2-yl-4-cyclobutylmethoxy-quinazolin-2-ylamine]: 1 to 10 µM and 10 to 20 µM.
Taken in the same sequence, the figures for `Nc1nc(OCC2CCC2)c2cc(-c3ccco3)ccc2n1` [Example 116, 4-Cyclobutylmethoxy-6-furan-2-yl-quinazolin-2-ylamine] were 1 to 10 µM and above 20 µM.
The matching figures for `Nc1nc(OCC2CCC2)c2cc(-c3ccsc3)ccc2n1` [Example 117, 4-Cyclobutylmethoxy-6-thiophen-3-yl-quinazolin-2-ylamine]: 1 to 10 µM and 10 to 20 µM.
In the data set on HCV replicon, `Nc1nc(OCC2CCC2)c2cc(-c3cccnc3)ccc2n1` [Example 118, 4-Cyclobutylmethoxy-6-pyridin-3-yl-quinazolin-2-ylamine] came in with an EC50 of 0.3 to 1 µM. This molecule returned a CC50 at 3 days in data set [1] of 10 to 20 µM.
The matching figures for `N#Cc1cccc(-c2ccc3nc(N)nc(OCC4CCC4)c3c2)c1` [Example 119, 3-(2-Amino-4-cyclobutylmethoxy-quinazolin-6-yl)-benzonitrile]: 1 to 10 µM and 10 to 20 µM.
Taken in the same sequence, the figures for `Nc1nc(OCC2CCC2)c2cc(-c3cn[nH]c3)ccc2n1` [Example 120, 4-Cyclobutylmethoxy-6-(2H-pyrazol-4-yl)-quinazolin-2-ylamine] were 0.3 to 1 µM and 10 to 20 µM.
Taken in the same sequence, the figures for `Nc1nc(OCC2CCC2)c2cc(-c3ccc(F)c(F)c3F)ccc2n1` [Example 121, 4-Cyclobutylmethoxy-6-(2,3,4-trifluoro-phenyl)-quinazolin-2-ylamine] were 1 to 10 µM and above 20 µM.
In the case of `N#Cc1ccc(-c2ccc3nc(N)nc(OCC4CCC4)c3c2)cc1` [Example 122, 4-(2-Amino-4-cyclobutylmethoxy-quinazolin-6-yl)-benzonitrile], in the data set on HCV replicon, the EC50 lay in the range of 1 to 10 µM. Besides, the CC50 at 3 days in data set [1] is above 20 µM.
The matching figures for `Nc1nc(OCC2CCC2)c2cc(-c3ccc(C(F)(F)F)cc3Cl)ccc2n1` [Example 124]: 1 to 10 µM and above 20 µM.
